# How the values were obtained:
# [1] = system: HeLa; assay: Cytotoxicity against wild type human HeLa cells by MTT assay; type: functional, cell-based
# [2] = system: HeLa; assay: Cytotoxicity against MDR1-G185 overexpressing human HeLa cells by MTT assay; type: functional, cell-based
compound,measurement,setting,value
C=C1[C@@H]2CC[C@H]3[C@]4(C)C[C@H](O[C@@H]5O[C@H](CO)[C@@H](O)[C@H](O)[C@H]5OC(=O)/C(C)=C\C)CC(C(=O)O)(C(=O)O)[C@H]4CC[C@]3(C2)[C@H]1O [SYLVISIDE],IC50,[1],325 µM
same,IC50,[2],1700 µM

# From ChEMBL document CHEMBL1157293, “Sylviside, a diterpene glucoside derivative from Gnaphalium sylvaticum” (J Nat Prod, 2006)
